{"source": "patent US9409884B2", "about": "(Rigel Pharmaceuticals, Inc., priority 2012, dated 2016)", "data": [{"target": "AMPK", "experiment": "AMPK activation, enzyme-linked immunosorbent assay", "assay_type": "biochemical", "conditions": "Table 8, compounds of Table 1", "description": "Compounds of Table 1 were assayed for their ability to activate AMPK using an enzyme-linked immunosorbent assay.\nCompounds of Table 2 were assayed for their ability to activate AMPK using an enzyme-linked immunosorbent assay.\nCompounds of Table 3 were assayed for their ability to activate AMPK using an enzyme-linked immunosorbent assay.\nCompounds of Table 4 were assayed for their ability to activate AMPK using an enzyme-linked immunosorbent assay.\nCompounds of Table 5 were assayed for their ability to activate AMPK using an enzyme-linked immunosorbent assay.\nCompounds of Table 6 were assayed for their ability to activate AMPK using an enzyme-linked immunosorbent assay.\nCompounds of Table 7 were assayed for their ability to activate AMPK using an enzyme-linked immunosorbent assay.", "units": {"EC50": "nM"}, "values": [{"smiles": "N#Cc1ccc(CN2CCC(Oc3ccc(S(=O)(=O)NC4CCN(Cc5ccncc5)CC4)cn3)CC2)cc1", "note": "[Compound 1-53, 6-(1-(4-cyanobenzyl)piperidin-4-yloxy)-N-(1-(pyridin-4-ylmethyl)piperidin-4-yl)pyridine-3-sulfonamide]", "EC50": "100 to 500"}, {"smiles": "CC(C)(C)OC(=O)N1CCC(NS(=O)(=O)c2ccc(OC3CCN(c4ccc(C(F)(F)F)cc4)CC3)nc2)CC1", "note": "[Compound 1-54, tert-butyl 4-(6-(1-(4-(trifluoromethyl)phenyl)piperidin-4-yloxy)pyridine-3-sulfonamido) piperidine-1-carboxylate]", "EC50": "1000 to 5000"}, {"smiles": "O=S(=O)(NC1CCNCC1)c1ccc(OC2CCN(c3ccc(C(F)(F)F)cc3)CC2)nc1", "note": "[Compound 1-55, N-(piperidin-4-yl)-6-(1-(4-(trifluoromethyl)phenyl)piperidin-4-yloxy)pyridine-3-sulfonamide]", "EC50": "1000 to 5000"}, {"smiles": "N#Cc1ccc(CN2CCC(NS(=O)(=O)c3ccc(OC4CCN(c5ccc(C(F)(F)F)cc5)CC4)nc3)CC2)cc1", "note": "[Compound 1-56, N-(1-(4-cyanobenzyl)piperidin-4-yl)-6-(1-(4-(trifluoromethyl)phenyl)piperidin-4-yloxy)pyridine-3-sulfonamide]", "EC50": "5000 to 10000"}, {"smiles": "N#Cc1cccc(CN2CCC(NS(=O)(=O)c3ccc(OC4CCN(c5ccc(C(F)(F)F)cc5)CC4)nc3)CC2)c1", "note": "[Compound 1-57, N-(1-(3-cyanobenzyl)piperidin-4-yl)-6-(1-(4-(trifluoromethyl)phenyl)piperidin-4-yloxy)pyridine-3-sulfonamide]", "EC50": "500 to 1000"}, {"smiles": "O=S(=O)(NC1CCN(Cc2ccc(C(F)(F)F)cc2)CC1)c1ccc(OC2CCN(c3ccc(C(F)(F)F)cc3)CC2)nc1", "note": "[Compound 1-58, N-(1-(4-(trifluoromethyl)benzyl)piperidin-4-yl)-6-(1-(4-(trifluoromethyl)phenyl)piperidin-4-yloxy)pyridine-3-sulfonamide]", "EC50": "< 100"}, {"smiles": "O=S(=O)(NC1CCN(Cc2cccc(C(F)(F)F)c2)CC1)c1ccc(OC2CCN(c3ccc(C(F)(F)F)cc3)CC2)nc1", "note": "[Compound 1-59, N-(1-(3-(trifluoromethyl)benzyl)piperidin-4-yl)-6-(1-(4-(trifluoromethyl)phenyl)piperidin-4-yloxy)pyridine-3-sulfonamide]", "EC50": "100 to 500"}, {"smiles": "O=C(c1ccc(F)cc1)N1CCC(NS(=O)(=O)c2ccc(OC3CCN(c4ccc(C(F)(F)F)cc4)CC3)nc2)CC1", "note": "[Compound 1-60, N-(1-(4-fluorobenzoyl)piperidin-4-yl)-6-(1-(4-(trifluoromethyl)phenyl)piperidin-4-yloxy)pyridine-3-sulfonamide]", "EC50": "> 10000"}, {"smiles": "Cc1c(C(=O)NC2CCN(C(=O)OC(C)(C)C)CC2)oc2cc(OC3CCN(c4ccc(C(F)(F)F)cc4)CC3)ccc12", "note": "[Compound 1-61, tert-butyl 4-(3-methyl-6-(1-(4-(trifluoromethyl)phenyl)piperidin-4-yloxy)benzofuran-2-carboxamido) piperidine-1-carboxylate]", "EC50": "100 to 500"}, {"smiles": "Cc1c(C(=O)NC2CCNCC2)oc2cc(OC3CCN(c4ccc(C(F)(F)F)cc4)CC3)ccc12", "note": "[Compound 1-62, 3-methyl-N-(piperidin-4-yl)-6-(1-(4-(trifluoromethyl)phenyl)piperidin-4-yloxy)benzofuran-2-carboxamide]", "EC50": "5000 to 10000"}, {"smiles": "Cc1c(C(=O)NC2CCN(Cc3ccc(F)cc3)CC2)oc2cc(OC3CCN(c4ccc(C(F)(F)F)cc4)CC3)ccc12", "note": "[Compound 1-63, N-(1-(4-fluorobenzyl)piperidin-4-yl)-3-methyl-6-(1-(4-(trifluoromethyl)phenyl)piperidin-4-yloxy)benzofuran-2-carboxamide]", "EC50": "< 100"}, {"smiles": "Cc1c(C(=O)NC2CCN(Cc3ccc(C#N)cc3)CC2)oc2cc(OC3CCN(c4ccc(C(F)(F)F)cc4)CC3)ccc12", "note": "[Compound 1-64, N-(1-(4-cyanobenzyl)piperidin-4-yl)-3-methyl-6-(1-(4-(trifluoromethyl)phenyl)piperidin-4-yloxy)benzofuran-2-carboxamide]", "EC50": "< 100"}, {"smiles": "Cc1c(C(=O)NC2CCN(Cc3ccncc3)CC2)oc2cc(OC3CCN(c4ccc(C(F)(F)F)cc4)CC3)ccc12", "note": "[Compound 1-65, 3-methyl-N-(1-(pyridin-4-ylmethyl)piperidin-4-yl)-6-(1-(4-(trifluoromethyl)phenyl)piperidin-4-yloxy)benzofuran-2-carboxamide]", "EC50": "< 100"}, {"smiles": "Cc1c(C(=O)NC2CCN(Cc3cccc(C#N)c3)CC2)oc2cc(OC3CCN(c4ccc(C(F)(F)F)cc4)CC3)ccc12", "note": "[Compound 1-66, N-(1-(3-cyanobenzyl)piperidin-4-yl)-3-methyl-6-(1-(4-(trifluoromethyl)phenyl)piperidin-4-yloxy)benzofuran-2-carboxamide]", "EC50": "< 100"}, {"smiles": "Cc1c(C(=O)NC2CCN(Cc3ccccc3C#N)CC2)oc2cc(OC3CCN(c4ccc(C(F)(F)F)cc4)CC3)ccc12", "note": "[Compound 1-67, N-(1-(2-cyanobenzyl)piperidin-4-yl)-3-methyl-6-(1-(4-(trifluoromethyl)phenyl)piperidin-4-yloxy)benzofuran-2-carboxamide]", "EC50": "< 100"}, {"smiles": "Cc1c(C(=O)NC2CCN(Cc3ccccn3)CC2)oc2cc(OC3CCN(c4ccc(C(F)(F)F)cc4)CC3)ccc12", "note": "[Compound 1-68, 3-methyl-N-(1-(pyridin-2-ylmethyl)piperidin-4-yl)-6-(1-(4-(trifluoromethyl)phenyl)piperidin-4-yloxy)benzofuran-2-carboxamide]", "EC50": "< 100"}, {"smiles": "Cc1c(C(=O)NC2CCN(Cc3cccnc3)CC2)oc2cc(OC3CCN(c4ccc(C(F)(F)F)cc4)CC3)ccc12", "note": "[Compound 1-69, 3-methyl-N-(1-(pyridin-3-ylmethyl)piperidin-4-yl)-6-(1-(4-(trifluoromethyl)phenyl)piperidin-4-yloxy)benzofuran-2-carboxamide]", "EC50": "< 100"}, {"smiles": "N#Cc1ccc(CN2CCC(Oc3ccc4oc(C(=O)NC5CCN(Cc6ccccc6)CC5)cc4c3)CC2)cc1", "note": "[Compound 1-70, N-(1-benzylpiperidin-4-yl)-5-(1-(4-cyanobenzyl)piperidin-4-yloxy)benzofuran-2-carboxamide]", "EC50": "< 100"}, {"smiles": "N#Cc1ccc(N2CCC(Oc3ccc4oc(C(=O)NC5CCN(Cc6ccccc6)CC5)cc4c3)CC2)cc1", "note": "[Compound 1-71, N-(1-benzylpiperidin-4-yl)-5-(1-(4-cyanophenyl)piperidin-4-yloxy)benzofuran-2-carboxamide]", "EC50": "< 100"}, {"smiles": "O=C(NC1CCN(Cc2ccccc2)CC1)c1cc2cc(OC3CCN(Cc4ccc(Cl)cc4)CC3)ccc2o1", "note": "[Compound 1-72, N-(1-benzylpiperidin-4-yl)-5-(1-(4-chlorobenzyl)piperidin-4-yloxy)benzofuran-2-carboxamide]", "EC50": "100 to 500"}, {"smiles": "O=C(NC1CCN(Cc2ccccc2)CC1)c1cc2cc(OC3CCN(Cc4cccc(C(F)(F)F)c4)CC3)ccc2o1", "note": "[Compound 1-73, N-(1-benzylpiperidin-4-yl)-5-(1-(3-(trifluoromethyl)benzyl)piperidin-4-yloxy)benzofuran-2-carboxamide]", "EC50": "500 to 1000"}, {"smiles": "O=C(NC1CCN(Cc2ccccc2)CC1)c1cc2cc(OC3CCN(Cc4ccc(F)c(F)c4)CC3)ccc2o1", "note": "[Compound 1-74, N-(1-benzylpiperidin-4-yl)-5-(1-(3,4-difluorobenzyl)piperidin-4-yloxy)benzofuran-2-carboxamide]", "EC50": "100 to 500"}, {"smiles": "O=C(NC1CCN(Cc2ccccc2)CC1)c1cc2cc(OC3CCN(c4ccc(C(F)(F)F)cc4)CC3)ccc2o1", "note": "[Compound 1-75, N-(1-benzylpiperidin-4-yl)-5-(1-(4-(trifluoromethyl)phenyl)piperidin-4-yloxy)benzofuran-2-carboxamide]", "EC50": "< 100"}, {"smiles": "O=C(NC1CCN(Cc2ccncc2)CC1)c1cc2cc(OC3CCN(c4ccc(C(F)(F)F)cc4)CC3)ccc2o1", "note": "[Compound 1-76, N-(1-(pyridin-4-ylmethyl)piperidin-4-yl)-5-(1-(4-(trifluoromethyl)phenyl)piperidin-4-yloxy)benzofuran-2-carboxamide]", "EC50": "100 to 500"}, {"smiles": "O=C(NC1CCN(Cc2ccncc2)CC1)c1cc2cc(OC3CCN(Cc4ccc(Cl)cc4)CC3)ccc2o1", "note": "[Compound 1-77, 5-(1-(4-chlorobenzyl)piperidin-4-yloxy)-N-(1-(pyridin-4-ylmethyl)piperidin-4-yl)benzofuran-2-carboxamide]", "EC50": "100 to 500"}, {"smiles": "O=C(NC1CCN(Cc2ccncc2)CC1)c1cc2cc(OC3CCN(c4ccc(OC(F)(F)F)cc4)CC3)ccc2o1", "note": "[Compound 1-78, N-(1-(pyridin-4-ylmethyl)piperidin-4-yl)-5-(1-(4-(trifluoromethoxy)phenyl)piperidin-4-yloxy)benzofuran-2-carboxamide]", "EC50": "< 100"}, {"smiles": "N#Cc1ccc(CN2CCC(Oc3ccc4oc(C(=O)NC5CCN(Cc6ccncc6)CC5)cc4c3)CC2)cc1", "note": "[Compound 1-79, 5-(1-(4-cyanobenzyl)piperidin-4-yloxy)-N-(1-(pyridin-4-ylmethyl)piperidin-4-yl)benzofuran-2-carboxamide]", "EC50": "100 to 500"}, {"smiles": "O=C(NC1CCN(Cc2ccccc2)CC1)c1cc2cc(OC3CCN(c4ccc(OC(F)(F)F)cc4)CC3)ccc2o1", "note": "[Compound 1-80, N-(1-benzylpiperidin-4-yl)-5-(1-(4-(trifluoromethoxy)phenyl)piperidin-4-yloxy)benzofuran-2-carboxamide]", "EC50": "< 100"}, {"smiles": "CC(C)(C)OC(=O)N1CCC(NC(=O)c2cc3ccc(OC4CCN(c5ccc(OC(F)(F)F)cc5)CC4)cc3o2)CC1", "note": "[Compound 1-81, tert-butyl 4-(6-(1-(4-(trifluoromethoxy)phenyl)piperidin-4-yloxy)benzofuran-2-carboxamido) piperidine-1-carboxylate]", "EC50": "100 to 500"}, {"smiles": "CC(C)(C)OC(=O)N1CCC(NC(=O)c2cc3ccc(OC4CCN(c5ccc(C(F)(F)F)cc5)CC4)cc3o2)CC1", "note": "[Compound 1-82, tert-butyl 4-(6-(1-(4-(trifluoromethyl)phenyl)piperidin-4-yloxy)benzofuran-2-carboxamido) piperidine-1-carboxylate]", "EC50": "100 to 500"}]}]}
